According to PubChem BioAssay AID1599 (NINDS Approved Drug Screening Program, 2009):
pEC50: −log10 of the molar value.

tested on: C. elegans polyQ-huntingtin mechanosensory neurons, touch response; test: rescue of polyQ-huntingtin neuronal dysfunction in worms, whole organism, C. elegans mechanosensory neurons, N-terminal huntingtin (AID 1599)

Going from `C[C@@]1(C(=O)O)CC[C@]2(C)CC[C@]3(C)C4=CC=C5C=C(O)C(=O)C=C5[C@]4(C)CC[C@@]3(C)[C@@H]2C1` to `CC1=C2C(=CO[C@H](C)[C@H]2C)C(=O)C(C(=O)O)=C1O`, the pEC50 falls from 6.40 to 4.40 (2.00 log units).

Compared with `COc1ccc(Cl)cc1C(=O)NCCc1ccc(S(=O)(=O)NC(=O)NC2CCCCC2)cc1`, `Clc1ccc(C(OCCN2CCCCC2)c2ccccc2)cc1` (stereo unspecified) is 1.09 log units lower in pEC50: 5.64 for the first, 4.55 for the second.

`Cc1cc(O)cc(C)c1Cl` and `Cc1cc2cc3c(C)cc(=O)oc3c(C)c2o1` are within 0.2 log units of each other in pEC50: 5.48 for the first, 5.42 for the second.

First: COc1ccc2cc(CCC(C)=O)ccc2c1
Second: CCCCNc1ccc(C(=O)OCCN(C)C)cc1
The pEC50 of the first is 0.24 log units lower: 5.00 for the first, 5.24 for the second. The second is the more potent here.

First: CNc1ccc2oc(C[C@@H]3OC4(CC[C@@H]3C)O[C@H](C(C)C(=O)c3ccc[nH]3)[C@H](C)C[C@H]4C)nc2c1C(=O)O (stereo partly specified)
Second: CC(C)(C)c1ccc(C(O)CCCN2CCC(C(O)(c3ccccc3)c3ccccc3)CC2)cc1 (stereo unspecified)
The pEC50 of the first is 0.79 log units lower: 5.26 for the first, 6.05 for the second.

Going from `Clc1ccc(COC(Cn2ccnc2)c2ccc(Cl)cc2Cl)cc1` (stereo unspecified) to `CN(C)CCCN1c2ccccc2CCc2ccc(Cl)cc21`, the pEC50 falls from 5.52 to 4.55 (0.97 log units).

Going from `CC1=NN(c2ccccc2)C(=O)C1` to `O=c1c2ccccc2[se]n1-c1ccccc1`, the pEC50 falls from 7.80 to 6.70 (1.10 log units). The first is the more potent here.

`Oc1c(Cl)cc(Cl)c2cccnc12` and `O=c1oc2ccccc2c(O)c1Cc1c(O)c2ccccc2oc1=O` are within 0.2 log units of each other in pEC50: 5.52 for the first, 5.38 for the second.

Going from `CN1CCC(=C2c3ccccc3Sc3ccccc32)CC1` to `CNCCC=C1c2ccccc2CCc2ccccc21`, the pEC50 rises from 4.62 to 5.74 (1.12 log units).

First: CN1CCN(C2=Nc3cc(Cl)ccc3Nc3ccccc32)CC1
Second: OCCN1CCN(CCCN2c3ccccc3Sc3ccc(Cl)cc32)CC1
The pEC50 of the first is 0.64 log units lower: 5.36 for the first, 6.00 for the second. The second is the more potent here.

First: O=C1c2ccc(O)c(O)c2C(=O)c2c(O)ccc(O)c21
Second: C[C@@H]1O[C@@H](O[C@H]2[C@H](Oc3cc(O)c4c(c3)O[C@H](c3ccc(O)cc3)CC4=O)O[C@H](CO)[C@@H](O)[C@@H]2O)[C@H](O)[C@H](O)[C@H]1O
The pEC50 of the first is 0.55 log units lower: 5.55 for the first, 6.10 for the second. The second is the more potent here.

First: C=Cc1c(C)c2cc3[nH]c(cc4nc(cc5nc(cc1[nH]2)C(C)=C5CCC(=O)O)C(CCC(=O)O)=C4C)c(C)c3C=C
Second: CCn1cc(C(=O)O)c(=O)c2cc3c(cc21)OCO3
The pEC50 of the first is 2.66 log units higher: 8.30 for the first, 5.64 for the second. The first is the more potent here.

Compared with `CC(=O)OCC1=C(C(=O)O)N2C(=O)[C@@H](NC(=O)CCCC(N)C(=O)O)C2SC1` (stereo partly specified), `CC(C)NNC(=O)c1ccncc1` is 0.90 log units lower in pEC50: 5.70 for the first, 4.80 for the second.
